Our source for the IC50 and Activity values is ChEMBL document CHEMBL4699455, “2H-1,2,3-Triazole-chalcones as novel cytotoxic agents against prostate cancer” (Bioorg Med Chem Lett, 2020).

For assay [1], the system named is PC-3. In words: Cytotoxicity against human PC-3 cells assessed as reduction in cell viability measured after 24 hrs by MTT assay. It counts as functional, cell-based. The conditions noted are these: PC-3, 24 h.
For assay [2], the system named is PC-3. The assay is described as follows: Cytotoxicity against human PC-3 cells assessed as reduction in cell viability at 100 uM measured after 24 hrs by MTT assay relative to control. The assay is classed as functional. For orientation: Tetrazolium dyes change colour on reduction, which living cells bring about.
The subject of assay [3] is PC-3. The assay is described as follows: Cytotoxicity against human PC-3 cells assessed as reduction in cell viability at 50 uM measured after 24 hrs by MTT assay relative to control. It counts as functional.
The test system of assay [4] is PC-3. The assay is described as follows: Cytotoxicity against human PC-3 cells assessed as reduction in cell viability at 100 uM measured after 24 hrs by MTT assay. The assay is classed as functional, cell-based.
The test system of assay [5] is PC-3. The assay is described as follows: Cytotoxicity against human PC-3 cells assessed as reduction in cell viability at 10 uM measured after 24 hrs by MTT assay relative to control. It counts as functional.
Assay [6] concerns PC-3. The assay is described as follows: Cytotoxicity against human PC-3 cells assessed as reduction in cell viability at 25 uM measured after 24 hrs by MTT assay relative to control. It counts as functional.

The source made the active and inactive calls. No cut-off for these calls is given here.

As usually defined, the IC50 is the concentration that gives 50% inhibition. Turning to `O=C(/C=C/c1cnn(-c2ccccc2)n1)c1cccs1`, in the assay on PC-3 [1], the IC50 turned out to be 47.9 µM. For the same compound, the Activity with PC-3 [2] was 24.23%; with PC-3 [3], 50%.

Take `C/C(=C\c1cnn(-c2ccccc2)n1)C(=O)c1ccccc1`: in the assay with PC-3 [4], the outcome was inactive.

For the compound `COc1ccc(C(=O)/C=C/c2cnn(-c3ccccc3)n2)c(OC)c1`, the IC50 in the assay on PC-3 [1] was determined as 25.6 µM. In addition, the Activity was found to be 73.03% with PC-3 [5], 16.03% with PC-3 [6] and 5.37% with PC-3 [2].

Turning to `COc1cccc2c1C(=O)c1c(O)c3c(c(O)c1C2=O)C[C@@](O)(C(=O)CO)C[C@@H]3O[C@H]1C[C@H](N)[C@H](O)[C@H](C)O1` [DOXORUBICIN], the IC50 with PC-3 [1] worked out at 0.77 µM.

For the compound `COc1cc(-c2cccs2)cc(-c2nnn(Cc3ccccc3)c2C)n1`, the IC50 in the assay on PC-3 [1] came to 1.03 µM.

In the case of `Cc1ccc(C(=O)/C=C/c2cnn(-c3ccccc3)n2)c(C)c1`, in the assay with PC-3 [1], the IC50 was 15.6 µM. In addition, the Activity with PC-3 [5] is given as 85.61%; in the assay on PC-3 [6], 39.03%; with PC-3 [2], 0%; in the assay with PC-3 [3] it was 3%.

In the case of `O=C(/C=C/c1cnn(-c2ccccc2)n1)c1ccccc1`, the IC50 in the assay with PC-3 [1] worked out at 28.6 µM. Also, the Activity with PC-3 [5] is recorded as 73.62%; in the assay with PC-3 [6], 44.7%; in the assay on PC-3 [2], 6.38%.

In the case of `C/C(=C\c1cnn(-c2ccccc2)n1)C(=O)c1ccc(F)cc1`, the outcome in the assay with PC-3 [4] was inactive.

For the compound `C/C(=C\c1cnn(-c2ccccc2)n1)C(=O)c1ccc(C(F)(F)F)cc1`, the result in the assay on PC-3 [4] was inactive.
